# Test results taken from patent US20110091945A1, “METHODS OF INCREASING BIOMASS PRODUCTIVITY, LIPID INDUCTION, AND CONTROLLING METABOLITES IN ALGAE FOR PRODUCTION OF BIOFUELS USING BIOCHEMICAL STIMULANTS” (priority 2009, published 2011).
# Tests used:
# [1] = tested on: Chlorella sorokiniana; experiment: Biostimulant static culture batch study: biomass productivity; format: cell-based, Chlorella sorokiniana (UTEX 2805); conditions: for effect on biomass / algal growth versus control, in words: day 5 and 10; for effect on biomass / algal growth versus control, in words / growth (biomass) increase over control: dosage of Table 1; for biomass (cell concentration / biomass productivity): 0.16 g/L with no biostimulants; for increase in biomass over control: dosage of Table 1 (NAA 5 ppm, PAA 30 ppm, IBA 10 ppm); for growth (biomass) increase over control: day not given
# Protocol: (§1) The pH value of culture medium was adjusted to 7.0±0.2 before inoculation and the alga was maintained in a temperature controlled growth chamber at 25±1° C. and 100±10 μmoles/m^2/s light intensity provided by cool white fluorescent (6500K) T-8 bulbs.
# (§2) • Selection of the biochemical stimulants: Ten biochemical stimulants were selected, including indole-acetic acid, naphthalene-acetic acid, and phenyl-acetic acid The structures are shown in FIGS. 1 and 2. • Biochemical stimulants: Naphthalene acetic acid (NAA), indole-butryic acid […], gibberellic acid, and kelp extract were obtained from Super-Grow Plant Care, Montreal, Canada; Zeatin, and thidiazuron were obtained from bioWORLD, GeneLinx International, Inc, Ohio, USA; phenyl-acetic acid was supplied by Sigma-Aldrich, St. Louis, Mo., USA.
# (§3) The experiment devised for the testing of biostimulants was a static culture batch study performed in triplicates for all treatments. Samples were collected and analyzed on day 0, 5 and 10. The growth medium was comprised of 90 ml of BG11 with appropriate concentrations of various biostimulants. Biochemical stimulants were filter sterilized through 0.22 μm Whatman syringe filter to avoid bacterial contamination. Each flask received 10 ml inoculum of exponentially growing Chlorella sorokiniana. After inoculation, flasks were incubated in the environmental growth chamber for 10 days in a temperature controlled growth chamber at 25±1° C. and 100±10 μmoles/m^21s light intensity provided by cool white fluorescent (6500K) T-8 bulbs.
# (§4) • Analysis: Optical density was measured at 750 nm using a UV/Visible Spectrophotometer (Varian Cary 50, Varian Inc, Palo Alto, Calif., USA). Chlorophyll content was estimated following the method of Porra et al., ((1989) Biochem. Biophys. Acta 975: 384-394, incorporated herein in its entirety). The carbohydrate and protein content were estimated using the well-known methods of Dubois and Lowry respectively. Biomass was determined by filtering 25 mL of culture using pre-weighed Whatman GF/C glass fiber filters (1.2 μm). The material was washed with deionized water, dried at 60° C. for 12 h, and weighed. Photosynthetic efficiency and kinetics were determined by chlorophyll a fluorescence analysis using a Pulse Amplitude Modulation Fluorometer (Mini-PAM Chlorophyll a Fluorometer, Heinz Walz GmbH, Effeltrich, Germany).
# [2] = tested on: Chlorella sorokiniana; experiment: Biostimulant static culture batch study: chlorophyll content; format: cell-based, Chlorella sorokiniana (UTEX 2805); set-up: increase in chlorophyll over control / decrease in chlorophyll content versus control: concentration or dose not given beside the values; conditions: for increase in chlorophyll over control: day 10; for decrease in chlorophyll content versus control: day 5
# Protocol: as §1, §2, §3, §4
# [3] = tested on: Chlorella sorokiniana; experiment: Biostimulant static culture batch study: total carbohydrate content; format: cell-based, Chlorella sorokiniana (UTEX 2805); conditions: for effect on carbohydrate synthesis versus control, in words: day 5; for increase in carbohydrate over control: day 10
# Protocol: as §1, §2, §3, §4
# [4] = tested on: Scenedesmus obliquus; conditions: 0.5% (v/v); cited from earlier work
# [5] = tested on: soy callus and radish cotyledon; conditions: cited from earlier work
# [6] = tested on: callus tissue culture from tobacco; conditions: cited from earlier work
# [7] = tested on: Dunaliella tertiolecta; conditions: 136 mg L^−1; cited from earlier work
smiles,measurement,setting,value
"C=C1C[C@]23C[C@@]1(O)CC[C@H]2[C@@]12C=C[C@H](O)[C@@](C)(C(=O)O1)[C@H]2[C@@H]3C(=O)O [GAA, gibberellic acid]","effect on biomass / algal growth versus control, in words",[1],barely surpassed the control on day 5
same,biomass (cell concentration / biomass productivity),[1]; day 10,~0.28 g/L
same,increase in biomass over control,"[1]; day 10, listed as GA",approximately 30%
same,increase in biomass over control,"[1]; day 10, listed as GA3",81%
same,"effect on chlorophyll synthesis, in words",[2],inhibiting chlorophyll synthesis throughout the growth period
same,increase in chlorophyll over control,[2],30%
"O=C(O)CCCc1c[nH]c2ccccc12 [IBA, indole-butryic acid]",increase in biomass over control,[1]; day 5,74%
same,"effect on biomass / algal growth versus control, in words",[1],stimulated biomass growth during the entire 0-10 day growth period
same,biomass (cell concentration / biomass productivity),[1]; day 10,0.28 g/L
same,increase in biomass over control,[1]; day 10,76%
same,"effect on chlorophyll synthesis, in words",[2],marginal increase by day 5
same,increase in chlorophyll over control,[2],93%
same,"effect on carbohydrate synthesis versus control, in words",[3],reduced carbohydrate contents on day 5
"CO [MeOH, methanol]",decrease in chlorophyll content versus control,[2],45%
same,increase in the growth rate,[4],> 300%
"O=C(O)Cc1ccccc1 [PAA, Phenyl acetic acid]",increase in biomass over control,[1]; day 5,95%
same,increase in biomass over control,[1]; day 10,42%
same,decrease in chlorophyll content versus control,[2],37%
same,"effect on carbohydrate synthesis versus control, in words",[3],reduced carbohydrate contents on day 5
same,increase in carbohydrate over control,[3],27%
"O=C(Nc1ccccc1)Nc1cnns1 [TDZ, thidiazuron]",increase in biomass over control,[1]; day 10,approximately 30%
same,growth (biomass) increase over control,[1],33%
same,increase in chlorophyll over control,[2],30%
same,optimal dose that generated maximum growth in soy callus and expansion of radish cotyledon,[5],1 µM
C/C(=C\CNc1ncnc2[nH]cnc12)CO [Zeatin],growth (biomass) increase over control,[1],27%
same,"effect on carbohydrate synthesis versus control, in words",[3],reduced carbohydrates synthesis on day 5
same,increase in carbohydrate over control,[3],31%
same,activity relative to its cis isomer,[6],at least 50 times
same,optimal dosage for maximum growth of callus tissue culture,[6],10^−2 μM
CCNc1nc(Cl)nc(NC(C)C)n1 [atrazine],increase in lipid content relative to the control,[7],101%
same,reduction of protein content relative to the control,[7],57%
[Cl][Fe]([Cl])[Cl] [ferric chloride],"effect on biomass / algal growth versus control, in words",[1],only marginal increases and decreases on day 10 and 5
same,decrease in chlorophyll content versus control,[2],65%
